Experimental findings from patent US20250163104A1, “MACROCYCLIC IMMUNOMODULATORS” (priority 2021, published 2025) are described below.

Usually IC50 stands for the midpoint of a concentration-inhibition curve.

In the assay the target is T1, human PD-1 / PD-L1-Ig binding on Jurkat cell line over-expressing human PD-1 (Jurkat-PD-1) (Homo sapiens, UniProt Q15116).
T1 construct: expressed in transfected cells; host or cells: Jurkat
Description: Jurkat-PD-1 Cell Binding High-Content Screening Assay (CBA). The conditions noted are these: PE-labeled PD-L1-Ig 20 nM final. Type of assay: cell-based. The gist of the method: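 Jurkat-hPD-1 cells in DMEM with 10% fetal calf serum receive test compound and are held at 37° C for 2 h. PE-labeled PD-L1-Ig is added at 20 nM final and left for 1 hour. Cells are then fixed and Hoechst-stained, and binding is measured by imaging.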

Where [1] appears, read: Jurkat-PD-1 cells, read-out: Jurkat HPD1_PDL1 IC50.

Each structure is given as a SMILES string. Read-outs that look alike come from different tables or passages of the source. Where a SMILES comes first, the peptide text is derived from it. Bridges are numbered along the chain shown (N, C = ends). [ ]: non-standard residue; d: D form. The star is where a group is joined. ξ: configuration not given here. Phe(4-COOH) = N[C@@H](Cc1ccc(C(=O)O)cc1)C(=O)O; Bip = N[C@@H](Cc1ccc(-c2ccccc2)cc1)C(=O)O; Phe(3-Me) = Cc1cccc(C[C@H](N)C(=O)O)c1; hArg = N=C(N)NCCCC[C@H](N)C(=O)O; 4Pal = N[C@@H](Cc1ccncc1)C(=O)O; Aad = N[C@@H](CCCC(=O)O)C(=O)O; Cha = N[C@@H](CC1CCCCC1)C(=O)O; Cit = NC(=O)NCCC[C@H](N)C(=O)O; Thr(3ξ) = CC(O)[C@H](N)C(=O)O; dNle = CCCC[C@@H](N)C(=O)O; Carboxymethyl = O=C(O)C*; Orn = NCCC[C@H](N)C(=O)O; Dab = NCC[C@H](N)C(=O)O; Dap = NC[C@H](N)C(=O)O; ξV = CC(C)C(N)C(=O)O; Propargyl = C#CC*; ξS = NC(CO)C(=O)O

T1 sequence (Q15116 25-288): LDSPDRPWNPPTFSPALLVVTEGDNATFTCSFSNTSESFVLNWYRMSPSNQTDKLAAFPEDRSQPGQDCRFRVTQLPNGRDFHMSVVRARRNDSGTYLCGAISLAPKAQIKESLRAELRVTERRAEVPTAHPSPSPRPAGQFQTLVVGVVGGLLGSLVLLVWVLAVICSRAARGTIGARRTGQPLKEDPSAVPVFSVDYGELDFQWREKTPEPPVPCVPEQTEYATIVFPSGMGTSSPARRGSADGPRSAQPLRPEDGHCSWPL

As to `Cc1cccc(C[C@@H]2NC(=O)[C@H](CC(=O)O)NC(=O)[C@H](Cc3ccc(C(=O)O)cc3)NC(=O)[C@H](Cc3ccc(OCC(=O)O)cc3)NC(=O)CSC[C@@H](C(=O)N[C@@H](C)C(N)=O)NC(=O)[C@H]([C@@H](C)O)NC(=O)[C@H](C(C)C)NC(=O)[C@H](CC(C)C)NC(=O)[C@H](CCN)NC(=O)[C@@H](CC(C)C)NC(=O)[C@H](CCCN)NC(=O)[C@H](C(C)C)NC(=O)[C@H](Cc3ccc(-c4ccccc4)cc3)NC(=O)[C@H](C(C)C)NC2=O)c1` [Compound 1221] ({CH2CO}-Y(Carboxymethyl)[Phe(4-COOH)]D[Phe(3-Me)]V[Bip]V[Orn][dL][Dab]LVTCA-NH2; thioether N-14), the IC50 under setting [1] stood at 3 nM.
Turning to `CC(C)C[C@@H]1NC(=O)[C@H](CCN)NC(=O)[C@@H](CC(C)C)NC(=O)[C@H](CCCN)NC(=O)[C@H](CCCNC(N)=O)NC(=O)[C@H](Cc2ccc(-c3ccccc3)cc2)NC(=O)[C@H](C(C)C)NC(=O)[C@H](Cc2c[nH]c3ccccc23)NC(=O)[C@H](CC(=O)O)NC(=O)[C@H](Cc2ccc(OCC(=O)O)cc2)NC(=O)[C@H](CN)NC(=O)CSC[C@@H](C(=O)N[C@@H](C)C(N)=O)NC(=O)[C@H]([C@@H](C)O)NC(=O)[C@H](C(C)C)NC1=O` [Compound 1040] ({CH2CO}-[Dap]Y(Carboxymethyl)DWV[Bip][Cit][Orn][dL][Dab]LVTCA-NH2; thioether N-14), under setting [1], the IC50 turned out to be 24.3 nM.
`Cc1cccc(C[C@@H]2NC(=O)[C@H](CC(=O)O)NC(=O)[C@H](Cc3ccc(OCC(=O)O)cc3)NC(=O)[C@H](CN)NC(=O)CSC[C@@H](C(=O)N[C@@H](C)C(N)=O)NC(=O)[C@H](CCCN)NC(=O)[C@H](C(C)C)NC(=O)[C@H](CC3CCCCC3)NC(=O)[C@H](CCN)NC(=O)[C@@H](CC(C)C)NC(=O)[C@H](CCCN)NC(=O)[C@H](C(C)C)NC(=O)[C@H](Cc3ccc(-c4ccccc4)cc3)NC(=O)[C@H](C(C)C)NC2=O)c1` [Compound 1754] ({CH2CO}-[Dap]Y(Carboxymethyl)D[Phe(3-Me)]V[Bip]V[Orn][dL][Dab][Cha]V[Orn]CA-NH2; thioether N-14): the half-inhibitory concentration (IC50) under setting [1] came to 5.5 nM.
As for `CCCC[C@H]1NC(=O)[C@H](CCCN)NC(=O)[C@H](C(C)C)NC(=O)[C@H](Cc2ccc(-c3ccccc3)cc2)NC(=O)[C@H](C(C)C)NC(=O)[C@H](Cc2c[nH]c3ccccc23)NC(=O)[C@H](CC(=O)O)NC(=O)[C@H](Cc2ccncc2)NC(=O)[C@H](CN)NC(=O)CSC[C@@H](C(=O)N[C@@H](C)C(N)=O)NC(=O)[C@H]([C@@H](C)O)NC(=O)[C@H](C(C)C)NC(=O)[C@H](CC2CCCCC2)NC(=O)[C@H](CCN)NC1=O` [Compound 1695], the IC50 under setting [1] is 34.4 nM.
`Cc1cccc(C[C@@H]2NC(=O)[C@H](CC(=O)O)NC(=O)[C@H](Cc3ccc(C(=O)O)cc3)NC(=O)[C@H](Cc3ccncc3)NC(=O)CSC[C@@H](C(=O)N[C@@H](CCN)C(N)=O)NC(=O)[C@H](CCC(=O)O)NC(=O)[C@H](C(C)C)NC(=O)[C@H](CC3CCCCC3)NC(=O)[C@H](CCN)NC(=O)[C@@H](CC(C)C)NC(=O)[C@H](CCCN)NC(=O)[C@H](Cc3ccc(OCC(=O)O)cc3)NC(=O)[C@H](Cc3ccc(-c4ccccc4)cc3)NC(=O)[C@H](Cc3ccc(OCC(=O)O)cc3)NC2=O)c1` [Compound 2308] ({CH2CO}-[4Pal][Phe(4-COOH)]D[Phe(3-Me)]Y(Carboxymethyl)[Bip]Y(Carboxymethyl)[Orn][dL][Dab][Cha]VEC[Dab]-NH2; thioether N-14): the IC50 under setting [1] turned out to be 7.5 nM.
Take `C#CCOc1ccc(C[C@@H]2NC(=O)[C@H](Cc3ccc(-c4ccccc4)cc3)NC(=O)[C@H](Cc3ccc(C(=O)O)cc3)NC(=O)[C@H](Cc3cccc(C)c3)NC(=O)[C@H](CC(=O)O)NC(=O)[C@H](Cc3ccc(C(=O)O)cc3)NC(=O)[C@H]([C@@H](C)O)NC(=O)CSC[C@@H](C(=O)N[C@@H](CCN)C(N)=O)NC(=O)[C@H](CCC(=O)O)NC(=O)[C@H](C(C)C)NC(=O)[C@H](CC3CCCCC3)NC(=O)[C@H](CCN)NC(=O)[C@@H](CC(C)C)NC(=O)[C@H](CCCN)NC2=O)cc1` [Compound 1828] ({CH2CO}-T[Phe(4-COOH)]D[Phe(3-Me)][Phe(4-COOH)][Bip]Y(Propargyl)[Orn][dL][Dab][Cha]VEC[Dab]-NH2; thioether N-14): under setting [1], the IC50 was determined as 6.9 nM.
On the same count and under the same terms, to `CCCC[C@H]1NC(=O)[C@H](CCCN)NC(=O)[C@H]([C@@H](C)CC)NC(=O)[C@H](Cc2ccc(-c3ccccc3)cc2)NC(=O)[C@H](C(C)C)NC(=O)[C@H](Cc2c[nH]c3ccccc23)NC(=O)[C@H](CC(=O)O)NC(=O)[C@H](Cc2ccc(O)cc2)NC(=O)[C@H](CC(N)=O)NC(=O)CSC[C@@H](C(=O)N[C@@H](C)C(N)=O)NC(=O)[C@H]([C@@H](C)O)NC(=O)[C@H](C(C)C)NC(=O)[C@H](CC2CCCCC2)NC(=O)[C@H](CCN)NC1=O` [Compound 1712] ({CH2CO}-NYDWV[Bip]I[Orn][dNle][Dab][Cha]VTCA-NH2; thioether N-14) belongs 25.1 nM; to `CCCC[C@H]1NC(=O)[C@H](CCCN)NC(=O)[C@H](C(C)C)NC(=O)[C@H](Cc2ccc(-c3ccccc3)cc2)NC(=O)[C@H](C(C)C)NC(=O)[C@H](Cc2c[nH]c3ccccc23)NC(=O)[C@H](CC(=O)O)NC(=O)[C@H](Cc2ccncc2)NC(=O)[C@H](Cc2ccc(OCC(=O)O)cc2)NC(=O)CSC[C@@H](C(=O)N[C@@H](C)C(N)=O)NC(=O)[C@H]([C@@H](C)O)NC(=O)[C@H](C(C)C)NC(=O)[C@H](CC2CCCCC2)NC(=O)[C@H](CCN)NC1=O` [Compound 1694], 34.5 nM.
For `CC(C)C[C@H]1NC(=O)[C@H](CCCN)NC(=O)[C@H](CCCNC(N)=O)NC(=O)[C@H](Cc2ccc(-c3ccccc3)cc2)NC(=O)[C@H](C(C)C)NC(=O)[C@H](Cc2c[nH]c3ccccc23)NC(=O)[C@H](CC(=O)O)NC(=O)[C@H](Cc2ccc(C(=O)O)cc2)NC(=O)[C@H](Cc2ccncc2)NC(=O)CSC[C@@H](C(=O)N[C@@H](C)C(N)=O)NC(=O)[C@H]([C@@H](C)O)NC(=O)[C@H](C(C)C)NC(=O)[C@H](CC2CCCCC2)NC(=O)[C@H](Cc2c[nH]cn2)NC1=O` [Compound 1598], the IC50 (Jurkat HPD1_PDL1 IC50, Jurkat-PD-1 cells) worked out at 9.9 nM.
In the case of `Cc1cccc(C[C@@H]2NC(=O)[C@H](CC(=O)O)NC(=O)[C@H](Cc3ccc(OCC(=O)O)cc3)NC(=O)[C@H](CN)NC(=O)CSC[C@@H](C(N)=O)NC(=O)[C@H](CC(N)=O)NC(=O)[C@H](C(C)C)NC(=O)[C@H](CC3CCCCC3)NC(=O)[C@H](CCN)NC(=O)[C@@H](CC(C)C)NC(=O)[C@H](CCCN)NC(=O)[C@H](Cc3ccc(OCC(=O)O)cc3)NC(=O)[C@H](Cc3ccc(-c4ccccc4)cc3)NC(=O)[C@H](Cc3ccc(OCC(=O)O)cc3)NC2=O)c1` [Compound 1780] ({CH2CO}-[Dap]Y(Carboxymethyl)D[Phe(3-Me)]Y(Carboxymethyl)[Bip]Y(Carboxymethyl)[Orn][dL][Dab][Cha]VNC-NH2; thioether N-14), the IC50 under setting [1] worked out at 11.3 nM.
`CC(C)C[C@@H]1NC(=O)[C@H](Cc2c[nH]c3ccccc23)NC(=O)[C@H](CC(=O)O)NC(=O)[C@H](Cc2ccc(OCC(=O)O)cc2)NC(=O)[C@H](C(C)O)NC(=O)CSC[C@@H](C(=O)N[C@@H](CC(N)=O)C(N)=O)NC(=O)[C@H](CO)NC(=O)[C@H](C(C)C)NC(=O)[C@H](CC2CCCCC2)NC(=O)[C@H](CCN)NC(=O)[C@@H](CC(C)C)NC(=O)[C@H](CCCN)NC(=O)[C@H](CC(N)=O)NC(=O)[C@H](Cc2ccc(-c3ccccc3)cc2)NC1=O` (stereo partly drawn) [Compound 2557] ({CH2CO}-[Thr(3ξ)]Y(Carboxymethyl)DWL[Bip]N[Orn][dL][Dab][Cha]VSCN-NH2; thioether N-14): under setting [1], the IC50 was determined as 68.6 nM.
On the same count and under the same terms, to `Cc1cccc(C[C@@H]2NC(=O)[C@H](CC(=O)O)NC(=O)[C@H](Cc3ccc(OCC(=O)O)cc3)NC(=O)[C@H](CCCCNC(=N)N)NC(=O)CSC[C@@H](C(=O)N[C@@H](CCCN)C(=O)NC(CO)C(N)=O)NC(=O)[C@H](CO)NC(=O)C(C(C)C)NC(=O)[C@H](CC3CCCCC3)NC(=O)[C@H](CCN)NC(=O)[C@@H](CC(C)C)NC(=O)[C@H](CCCN)NC(=O)[C@H](CCCNC(N)=O)NC(=O)[C@H](Cc3ccc(-c4ccccc4)cc3)NC(=O)[C@H](C(C)C)NC2=O)c1` (stereo partly drawn) [Compound 2592] ({CH2CO}-[hArg]Y(Carboxymethyl)D[Phe(3-Me)]V[Bip][Cit][Orn][dL][Dab][Cha][ξV]SC[Orn][ξS]-NH2; thioether N-14) belongs 15.3 nM; to `Cc1cccc(C[C@@H]2NC(=O)[C@H](CC(=O)O)NC(=O)[C@H](Cc3ccc(OCC(=O)O)cc3)NC(=O)[C@H](CCCC(=O)O)NC(=O)CSC[C@@H](C(=O)N[C@@H](C)C(N)=O)NC(=O)[C@H](CO)NC(=O)[C@H](C(C)C)NC(=O)[C@H](CC3CCCCC3)NC(=O)[C@H](CCN)NC(=O)[C@@H](CC(C)C)NC(=O)[C@H](CCCN)NC(=O)[C@H](C(C)C)NC(=O)[C@H](Cc3ccc(-c4ccccc4)cc3)NC(=O)[C@H](C(C)C)NC2=O)c1` [Compound 2537] ({CH2CO}-[Aad]Y(Carboxymethyl)D[Phe(3-Me)]V[Bip]V[Orn][dL][Dab][Cha]VSCA-NH2; thioether N-14), 18.3 nM.
Consider `Cc1cccc(C[C@@H]2NC(=O)[C@H](CC(=O)O)NC(=O)[C@H](Cc3ccc(OCC(=O)O)cc3)NC(=O)[C@H](Cc3ccncc3)NC(=O)CSC[C@@H](C(=O)N[C@@H](C)C(N)=O)NC(=O)[C@H]([C@@H](C)O)NC(=O)[C@H](C(C)C)NC(=O)[C@H](CC3CCCCC3)NC(=O)[C@H](Cc3cnc[nH]3)NC(=O)[C@@H](CC(C)C)NC(=O)[C@H](CCCN)NC(=O)[C@H](C(C)C)NC(=O)[C@H](Cc3ccc(-c4ccccc4)cc3)NC(=O)[C@H](C(C)C)NC2=O)c1` [Compound 1588], for which the IC50 under setting [1] was determined as 25.4 nM.
